Experimental data taken from patent US20250313535A1, “ALPHA 4 BETA 7 INTEGRIN MODULATORS AND USES THEREOF” (DICE MOLECULES SV, INC., priority 2022, published 2025).
Where two headings read alike, the source gives them in different places.

Assays:
α4β7 integrin = α4β7 integrin (Homo sapiens (Human), UniProt P13612+P26010); test: Integrin Adhesion Assay: Protocol 1 (MAdCAM-coated plate, RPMI-8866 cells, CellTiter GLO readout); format: cell-based
Procedure: α4β7 and α4β1 inhibition was evaluated in vitro using at least one of the following procedures:
Integrin Adhesion Assay: Protocol 1
MAdCAM (R&D Systems, 0.1 ug) was diluted in 50 μL PBS, added to each well of an opaque ELISA plate (Thermo), and incubated overnight at 4° C. Coated plates were washed once with PBS and then blocked with 200 μL of assay buffer (10 mM HEPES, 150 mM NaCl, 1 mM MnCl2, 0.1 mM CaCl2), 1% BSA) for 1 hour at 37° C. and 5% CO2. After incubation, buffer was aspirated from the plates and 50 μL of fresh assay buffer is added. Compounds were added by a compouns dispenser (Tecan) and DMSO concentration was normalized to 1% across each plate. 50 μL of RPMI-8866 cells (2×10^6 per mL) were added to each well and the plates were incubated for 1 hour at 37° C. and 5% CO2. After incubation, plates were allowed to cool to RT for 10 minutes before being washed four times in assay buffer by an automated plate washer (BioTek). After washing, 100 μL of a 1:1 mixture of assay buffer and CellTiter GLO 2.0 reagent (Promega) were added to each well. Plates were mixed for 2 minutes at 1000 rpm and then allowed to incubate an additional 10 minutes before reading out luminescence on a Tecan Spark plate reader. Raw data was converted to percent inhibition based on DMSO only and control compound wells, and curves were analyzed by 4-parameter fit within Dotmatics software.

α4β1 integrin = α4β1 integrin (Homo sapiens (Human), UniProt P05556+P13612); test: Integrin Adhesion Assay: Protocol 5 (VCAM-coated plate, RPMI-8866 cells with stable LOF mutation of the ITGB7 gene); format: cell-based
How it was run: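 RPMI-8866 B cells with CRISPR/Cas9 ITGB7 knockout (clonal, verified by flow cytometry) adhered to VCAM-coated wells for 1 h at 37° C in HEPES/NaCl buffer with 1 mM MnCl2, 0.1 mM CaCl2, 1% BSA, 1% DMSO. Bound cells quantified by CellTiter-Glo luminescence after washing; % inhibition versus DMSO and control, 4-parameter fit.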

[1] = RPMI-8866 cells with stable LOF mutation of the ITGB7 gene, read-out: Mean IC50 α4β1 KO^b
[2] = Protocol 5, RPMI-8866 cells with LOF mutation of ITGB7, VCAM, read-out: Mean IC50 α4β1 KO
[3] = integrin adhesion assay, determined by at least one of the assays described (protocol not specified)

Sequence of α4β7 integrin (P13612 34-1032): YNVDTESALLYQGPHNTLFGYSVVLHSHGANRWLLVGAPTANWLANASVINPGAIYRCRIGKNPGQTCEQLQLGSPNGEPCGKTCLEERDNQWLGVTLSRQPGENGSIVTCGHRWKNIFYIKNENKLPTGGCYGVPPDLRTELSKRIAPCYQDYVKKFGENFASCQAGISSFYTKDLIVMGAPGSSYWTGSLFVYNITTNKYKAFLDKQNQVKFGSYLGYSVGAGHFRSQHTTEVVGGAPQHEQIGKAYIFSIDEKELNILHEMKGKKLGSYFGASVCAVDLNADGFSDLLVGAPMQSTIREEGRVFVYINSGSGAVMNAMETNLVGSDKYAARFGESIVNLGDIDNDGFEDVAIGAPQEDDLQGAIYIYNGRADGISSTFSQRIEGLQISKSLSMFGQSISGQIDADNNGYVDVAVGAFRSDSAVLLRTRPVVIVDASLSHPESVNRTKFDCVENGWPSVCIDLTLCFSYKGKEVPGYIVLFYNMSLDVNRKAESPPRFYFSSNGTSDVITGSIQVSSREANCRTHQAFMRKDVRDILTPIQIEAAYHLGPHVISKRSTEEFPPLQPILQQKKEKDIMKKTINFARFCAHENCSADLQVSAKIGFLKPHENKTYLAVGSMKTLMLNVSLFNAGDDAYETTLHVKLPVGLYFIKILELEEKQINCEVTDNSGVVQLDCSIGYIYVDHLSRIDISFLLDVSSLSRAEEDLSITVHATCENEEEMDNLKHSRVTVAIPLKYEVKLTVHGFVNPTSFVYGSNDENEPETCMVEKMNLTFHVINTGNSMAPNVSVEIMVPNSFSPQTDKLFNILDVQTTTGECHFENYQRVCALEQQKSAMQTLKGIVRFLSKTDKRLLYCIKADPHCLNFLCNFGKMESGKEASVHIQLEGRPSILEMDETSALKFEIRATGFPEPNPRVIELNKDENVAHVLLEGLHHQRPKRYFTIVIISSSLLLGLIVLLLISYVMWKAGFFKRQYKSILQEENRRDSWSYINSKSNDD
Sequence of α4β7 integrin (P26010 20-798): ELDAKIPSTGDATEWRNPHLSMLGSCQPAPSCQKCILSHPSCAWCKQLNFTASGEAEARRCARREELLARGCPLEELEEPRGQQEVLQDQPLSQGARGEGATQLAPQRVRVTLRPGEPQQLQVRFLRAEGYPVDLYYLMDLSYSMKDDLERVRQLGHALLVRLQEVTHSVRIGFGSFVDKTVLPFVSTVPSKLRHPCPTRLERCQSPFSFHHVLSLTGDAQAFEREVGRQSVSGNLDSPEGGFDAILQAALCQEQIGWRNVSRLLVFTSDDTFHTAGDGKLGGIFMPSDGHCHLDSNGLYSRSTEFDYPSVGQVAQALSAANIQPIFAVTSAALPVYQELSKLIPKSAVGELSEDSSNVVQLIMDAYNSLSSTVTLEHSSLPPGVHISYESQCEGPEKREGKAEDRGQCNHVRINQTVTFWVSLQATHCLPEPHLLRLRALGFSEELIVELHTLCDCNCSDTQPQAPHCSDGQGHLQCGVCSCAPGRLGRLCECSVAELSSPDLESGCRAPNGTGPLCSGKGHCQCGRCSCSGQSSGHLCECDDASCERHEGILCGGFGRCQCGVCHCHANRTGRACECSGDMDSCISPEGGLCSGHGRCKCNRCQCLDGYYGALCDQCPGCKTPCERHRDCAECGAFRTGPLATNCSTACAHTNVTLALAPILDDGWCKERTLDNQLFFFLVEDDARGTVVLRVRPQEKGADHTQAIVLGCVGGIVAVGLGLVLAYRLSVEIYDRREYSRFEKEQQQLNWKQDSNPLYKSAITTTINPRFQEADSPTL
Sequence of α4β1 integrin (P13612 34-1032): as the sequence (P13612 34-1032) above
Sequence of α4β1 integrin (P05556 21-798): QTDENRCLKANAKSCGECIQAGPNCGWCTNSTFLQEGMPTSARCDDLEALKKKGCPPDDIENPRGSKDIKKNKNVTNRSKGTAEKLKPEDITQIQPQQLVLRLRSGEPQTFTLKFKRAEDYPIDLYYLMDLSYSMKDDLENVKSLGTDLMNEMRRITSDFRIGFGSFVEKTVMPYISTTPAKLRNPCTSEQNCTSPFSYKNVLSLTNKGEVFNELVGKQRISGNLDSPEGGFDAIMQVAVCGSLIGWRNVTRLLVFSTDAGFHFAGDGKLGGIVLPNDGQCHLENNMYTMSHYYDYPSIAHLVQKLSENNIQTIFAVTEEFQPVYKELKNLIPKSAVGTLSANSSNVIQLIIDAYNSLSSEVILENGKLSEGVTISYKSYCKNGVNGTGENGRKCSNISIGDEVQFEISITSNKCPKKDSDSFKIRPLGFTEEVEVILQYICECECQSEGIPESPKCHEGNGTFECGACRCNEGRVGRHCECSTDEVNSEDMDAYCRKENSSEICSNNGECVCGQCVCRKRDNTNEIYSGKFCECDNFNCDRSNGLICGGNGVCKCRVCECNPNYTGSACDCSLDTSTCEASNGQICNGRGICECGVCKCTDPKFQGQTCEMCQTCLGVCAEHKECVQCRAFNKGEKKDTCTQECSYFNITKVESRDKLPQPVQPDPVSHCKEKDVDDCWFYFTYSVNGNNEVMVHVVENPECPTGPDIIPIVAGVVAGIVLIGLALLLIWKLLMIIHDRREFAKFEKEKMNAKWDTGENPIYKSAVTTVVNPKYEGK

| IC50 (α4β7 integrin) [µM] | IC50 (α4β1 integrin; [1]) [µM] | SMILES | further results |
| --- | --- | --- | --- |
| 0.1 to 1 | > 1 | CO[C@@H](C)c1cc(F)c(C(=O)N[C@@H](Cc2cccc3c(-c4c(C(F)(F)F)c5ccccc5n(C)c4=O)cccc23)C(=O)O)c(F)c1 [Compound 415] | – |
| 0.01 to 0.1 | > 1 | COCCN(c1cc(F)c(C(=O)N[C@@H](Cc2cccc3c(-c4c(C(F)(F)F)c5ccccc5n(C)c4=O)cccc23)C(=O)O)c(F)c1)C1COC1 [Compound 393] | – |
| 0.1 to 1 | > 1 | CN(c1cc(F)c(C(=O)N[C@@H](Cc2cccc3c(-c4c(C(F)(F)F)c5ccccc5n(C)c4=O)cccc23)C(=O)O)c(F)c1)C1COC1 [Compound 364] | – |
| 0.01 to 0.1 | > 1 | Cn1c(=O)c(-c2cccc3c(C[C@H](NC(=O)c4c(F)cc(N5CCOC[C@@H]5C(F)(F)F)cc4F)C(=O)O)cccc23)c(C(F)(F)F)c2ccccc21 [Compound 317] | – |
| 0.01 to 0.1 | > 1 | COCCN(CC(F)(F)F)c1cc(F)c(C(=O)N[C@@H](Cc2cccc3c(-c4c(C(F)(F)F)c5ccccc5n(C)c4=O)cccc23)C(=O)O)c(F)c1 [Compound 385] | – |
| 0.1 to 1 | > 1 | Cn1c(=O)c(-c2cccc3c(C[C@H](NC(=O)c4c(F)cc(N5CCCC[C@@H]5C(F)(F)F)cc4F)C(=O)O)cccc23)c(C(F)(F)F)c2ccccc21 [Compound 318] | – |
| > 1 | – | Cn1c(=O)c(-c2cccc3c(C[C@H](NC(=O)c4c(F)cc(N5CCO[C@H](c6ccccc6)C5)cc4F)C(=O)O)cccc23)c(C(F)(F)F)c2ccccc21 [Compound 333] | – |
| > 1 | – | Cn1c(=O)c(-c2cccc3c(C[C@H](NC(=O)c4c(F)cc([C@H]5C[C@H](N(C)C)C5)cc4F)C(=O)O)cccc23)c(C(F)(F)F)c2ccccc21 [Compound 417] | – |
| 0.1 to 1 | – | Cn1c(=O)c(-c2cccc3c(C[C@H](NC(=O)c4c(F)cc(N5CCOC6(CCC6)C5)cc4F)C(=O)O)cccc23)c(C(F)(F)F)c2ccccc21 [Compound 340] | – |
| 0.01 to 0.1 | – | Cn1c(=O)c(-c2cccc3c(C[C@H](NC(=O)c4c(F)cc(N5CCS(=O)(=O)CC5)cc4F)C(=O)O)cccc23)c(C(F)(F)F)c2ccccc21 [Compound 398] | – |
| > 1 | – | Cn1c(=O)c(-c2cccc3c(C[C@H](NC(=O)c4c(F)cc(N5CCOC[C@H]5c5ccccc5)cc4F)C(=O)O)cccc23)c(C(F)(F)F)c2ccccc21 [Compound 334] | – |
| 0.01 to 0.1 | – | Cn1c(=O)c(-c2cccc3c(C[C@H](NC(=O)c4c(F)cc(N(CC5COC5)C5COC5)cc4F)C(=O)O)cccc23)c(C(F)(F)F)c2ccccc21 [Compound 394] | – |
| 0.1 to 1 | – | Cn1c(=O)c(-c2cccc3c(C[C@H](NC(=O)c4c(F)cc(N5CCC(F)(F)CC5)cc4F)C(=O)O)cccc23)c(C(F)(F)F)c2ccccc21 [Compound 379] | – |
| 0.1 to 1 | – | CN1CCC(c2cc(F)c(C(=O)N[C@@H](Cc3cccc4c(-c5c(C(F)(F)F)c6ccccc6n(C)c5=O)cccc34)C(=O)O)c(F)c2)CC1 [Compound 383] | – |
| 0.1 to 1 | – | Cn1c(=O)c(-c2cccc3c(C[C@H](NC(=O)c4c(F)cc(N5CC(F)C5)cc4F)C(=O)O)cccc23)c(C(F)(F)F)c2ccccc21 [Compound 395] | – |

Second part, the compound before the results:

| SMILES | IC50 (α4β7 integrin) [µM] | IC50 (α4β1 integrin; [1]) [µM] | further results |
| --- | --- | --- | --- |
| CN(C)Cc1ccc2c(c1)c(C(F)(F)F)c(-c1cccc3c(C[C@H](NC(=O)c4c(F)cc(N5CCOC[C@@H]5C(F)(F)F)cc4F)C(=O)O)cccc13)c(=O)n2C [Compound 698] | – | – | IC50 (α4β7 integrin; protocol not given): < 0.01 µM; IC50 (α4β1 integrin; [2]): 0.1 to 1 µM |
| Cn1c(=O)c(-c2cccc3c(C[C@H](NC(=O)[C@]4(C)CC[C@H](N5CCOC[C@@H]5C(F)(F)F)CC4)C(=O)O)cccc23)c(C(F)(F)F)c2ccccc21 (single isomer, unassigned) [Compound 347] | 0.01 to 0.1 | > 1 | – |
| Cn1c(=O)c(-c2cccc3c(C[C@H](NC(=O)C4(C)CCN(C5COC5)CC4)C(=O)O)cccc23)c(C(F)(F)F)c2ccccc21 [Compound 363] | 0.01 to 0.1 | > 1 | – |
| CN(C)Cc1ccc2c(-c3cccc4c(C[C@H](NC(=O)[C@]5(C)CC[C@@H](N6CCOC[C@@H]6C(F)(F)F)CC5)C(=O)O)cccc34)nccc2c1 [Compound 581] | 0.01 to 0.1 | > 1 | – |
| CN(C)Cc1ccc2c(-c3cccc4c(C[C@H](NC(=O)C5(C)CCN(CC(F)(F)F)CC5)C(=O)O)cccc34)nccc2c1 [Compound 583] | 0.01 to 0.1 | > 1 | – |
| CN(C)Cc1cccc2c(-c3cccc4c(C[C@H](NC(=O)[C@]5(C)CC[C@H](N6CCC(F)(F)CC6)CC5)C(=O)O)cccc34)nccc12 [Compound 424] | < 0.01 | > 1 | – |
| Cn1c(=O)c(-c2cccc3c(C[C@H](NC(=O)[C@]4(C)CC[C@@H](N5CCC(F)(F)CC5)CC4)C(=O)O)cccc23)c(C(F)(F)F)c2ccccc21 [Compound 401] | 0.01 to 0.1 | > 1 | – |
| Cn1c(=O)c(-c2cccc3c(C[C@H](NC(=O)[C@]4(C)CC[C@H](N5CCC(F)(F)CC5)CC4)C(=O)O)cccc23)c(C(F)(F)F)c2ccccc21 [Compound 402] | > 1 | > 1 | – |
| O=C(N[C@@H](Cc1cccc2c(-n3c(C(F)(F)F)cccc3=O)cccc12)C(=O)O)c1c(F)cccc1F [Compound 1040] | – | – | IC50 (α4β7 integrin; protocol not given): 0.01 to 0.1 µM; IC50 (α4β1 integrin; [2]): > 1 µM |
| Cc1cc(N2CCOC[C@@H]2C(F)(F)F)cc(F)c1C(=O)N[C@@H](Cc1cccc2c(-c3c(C(F)(F)F)c4ccccc4n(C)c3=O)cccc12)C(=O)O [Compound 361] | 0.01 to 0.1 | > 1 | – |
| Cn1c(C(F)(F)F)cc(C(F)(F)F)c(-c2cccc3c(C[C@H](NC(=O)C4(C(F)(F)F)CCN(CC(F)(F)F)CC4)C(=O)O)cccc23)c1=O [Compound 431] | < 0.01 | 0.1 to 1 | – |
| CN(C)c1ccc2c(c1)c(C(F)(F)F)c(-c1cccc3c(C[C@H](NC(=O)[C@]4(C)CC[C@H](N5CCC(F)(F)CC5)CC4)C(=O)O)cccc13)c(=O)n2C [Compound 412] | > 1 | > 1 | – |
| Cc1cccc(C)c1-c1nc(C)c(C(=O)N[C@@H](Cc2cccc3c(-c4c(C(F)(F)F)c5ccccc5n(C)c4=O)cccc23)C(=O)O)n1C [Compound 330] | 0.01 to 0.1 | > 1 | – |
| O=C(N[C@@H](Cc1cccc2c(-c3cccc4ccncc34)cccc12)C(=O)O)c1c(F)cc(N2CCOC[C@@H]2C(F)(F)F)cc1CN1CCC(F)(F)CC1 [Compound 301] | 0.01 to 0.1 | > 1 | – |
| Cc1cccc(C)c1-c1cc(F)c(F)c(C(=O)N[C@@H](Cc2cccc3c(-c4c(C(F)(F)F)c5ccccc5n(C)c4=O)cccc23)C(=O)O)c1 [Compound 306] | > 1 | – | – |
| Cc1c(C(=O)N[C@@H](Cc2cccc3c(-c4c(C(F)(F)F)c5ccccc5n(C)c4=O)cccc23)C(=O)O)nn2ccccc12 [Compound 329] | > 1 | – | – |
| Cc1nn(CC(F)(F)F)c(C)c1C(=O)N[C@@H](Cc1cccc2c(-n3c(=O)ccn(C)c3=O)cccc12)C(=O)O [Compound 122] | – | – | IC50 (α4β7 integrin; [3]): 0.01 to 0.1 µM |
| Cn1ccc(=O)n(-c2cccc3c(C[C@H](NC(=O)c4c(F)ccc(NS(=O)(=O)C5CC5)c4F)C(=O)O)cccc23)c1=O [Compound 134] | – | – | IC50 (α4β7 integrin; [3]): < 0.01 µM |
| Cn1ccc(C(F)(F)F)c(-c2ccnc3c(C[C@H](NC(=O)c4c(F)cccc4F)C(=O)O)cccc23)c1=O [Compound 212] | – | – | IC50 (α4β7 integrin; [3]): 0.1 to 1 µM |
| Cn1c(=O)c(-c2cccc3c(C[C@H](NC(=O)c4cc5ccc(N6CC(F)(F)C6)cn5n4)C(=O)O)cccc23)c(C(F)(F)F)c2ccccc21 [Compound 428] | > 1 | – | – |
